This is an account of results in US4091115A, “7-Amino-benzocycloheptenes” (Roussel Uclaf, priority 1975, dated 1978).

Where a name gives a salt, the structure may show the parent alone. A value given as a limit tells only on which side of the number the result lay.

In series [1] the test system is effects of monoamine oxidase inhibitor (nialamide). Briefly: Potentiation of effects of monoamine oxidase inhibitor (nialamide) in mice. Type of series: in vivo. On the set-up: key: Potentiation of the effects of nialamide for the tested product was expressed in increasing number of + signs for a determined dose in mg/kg; ++: Potentiation of the effects of nialamide for the tested product was expressed in increasing number of + signs for a determined dose in mg/kg; +++: Potentiation of the effects of nialamide for the tested product was expressed in increasing number of + signs for a determined dose in mg/kg. The note with it: nialamide 100 mg/kg i.p. 30 minutes before, actimetry 6 hours. How it is done: The administration of a monoamine oxidase inhibitor to mice induces a hyperactive movement of the animals which is able to be potentiated by an antidepressant. Using the procedure of Carlsson et al [Brain Research, Vol. 12 (1969), p. 456], a dose of 100 mg/kg of nialamide was intraperitoneally administered to mice 30 minutes before the intraperitoneal administration of the tested product and the values of actimetric measurements were recorded every 30 minutes for 6 hours. Potentiation of the effects of nialamide for the tested product was expressed in increasing number of + signs for a determined dose in mg/kg.

The test system of series [2] is effects of 5-HTP. Nature of the series: Potentiation of effects of 5-HTP in mice. Type of series: in vivo. As to conditions: Mus musculus, 1 h; i.p. one hour before 5-HTP 200 mg/kg i.p.; trembling observed for an hour; read-out: MAD (minimal active dose), potentiation of 5-HTP effects. The procedure: The administration of 5-hydroxytryptophane (5-HTP) to mice pretreated with an antidepressant induces in the animals a particular behavior, namely the appearance of trembling. The tested products were administered intraperitoneally at increasing doses one hour before the intraperitoneal administration of 5-HTP at an dose of 200 mg/kg. The symptoms were observed every 15 minutes for an hour to determine the miminal active dose (MAD) of the test product and the results are reported in Table II.

Series [3] deals with effects of L-dopa. Nature of the series: Potentiation of effects of L-dopa in mice pretreated with iproniazide. Type of series: in vivo, male mice. As to conditions: Mus musculus, ip; i.p. one hour before L-dopa 100 mg/kg i.p.; iproniazide 75 mg/kg i.p. 18 hours before; read-out: ED50, dose which potentiates by 50% the L-dopa effects. How it is done:
The administration of L-dopa to mice pretreated 18 hours previously with iproniazide produced certain number of symptoms; muscular hypertonically, hyperactivity, agitation, crying, aggressiveness, salivation and exophthalmy. The intensity of these effects is potentiated by administration of an antidepressant one hour before the administration of L-dopa. Male mices received intraperitoneally 75 mg/kg of iproniazide 18 hours before the start of the test and the tested product was intraperitoneally administered in aqueous solution in increasing doses. One hour later, L-dopa was intraperitoneally administered at a dose of 100 mg/kg and the different symptoms were observed 15 and 30 minutes later. They were evaluated on a scale of 0 to 3 for each animal and the totals for each dose were determined.

Series [4] in a line: Acute toxicity in mice. It counts as in vivo. As to conditions: mouse, in vivo, ip, intraperitoneal. The procedure: (§1) The LD50 dose which kills 50% of mice after intraperitoneal administration of the tested compounds was determined 48 hours later and the results are reported in Table IV.
In series [5] the test system is serotonine (5HT) uptake in synaptosomes. Nature of the series: Inhibition of Serotonine uptake in vitro (brain synaptosomes). Type of series: biochemical, female rat 19 to 21 days old. The note with it: rat whole brain synaptosomes, 37° C, 5 minutes, 14 C-5HT 10^-7 M; read-out: I.C. 50, Test in vitro (inhibition of 14 C-5HT uptake). How it is done:
The inhibition of serotonine (5HT) uptake was measured in impure synaptosomes prepared from the entire brain of a female rat 19 to 21 days old using the technique of Kannengiesser et al [Biochemical Pharmacology, Vol. 22, (1973) p. 73]. Diverse concentrations of the products were placed in an incubator with the preparation at 37° C for 5 minutes in the presence of 14 C-5HT at a concentration of 10^-7 M. The 50% inhibiting concentration (IC50), dose which inhibits by 50% the uptake of 14 C-5HT in the synaptosomes was determined graphically and the IC50 dose for the compounds is reported in Table V.

The subject of series [6] is uptake of 14 C-5HT in synaptosomes. Nature of the series: Inhibition of Serotonine uptake in vivo (synaptosomes from treated rats). On the set-up: species or system female rats 19 to 21 days old; key: the activity was expressed in increasing number of + signs; ++: the activity was expressed in increasing number of + signs; +++: the activity was expressed in increasing number of + signs. The note with it: i.p. 5 to 20 mg/kg; brain removed after 30 minutes. The procedure: The tested products were intraperitoneally administered to groups of female rats 19 to 21 days old at doses of 5 to 20 mg/kg. After 30 minutes, the brain was removed and synaptosomes were prepared and placed in an incubator in the presence of 14 C-5HT as indicated in the previous test.

In series [7] the test system is mice. Nature of the series: Acute toxicity in mice. It counts as in vivo. The note with it: intraperitoneal, 48 hours. How it is done:
as §1

Regarding `CNC1C=Cc2cccc(Cl)c2CC1` (stereo not shown) [Example 11, 4-chloro-7-methylamino-6,7-dihydro [5H] benzocyclopheptene hydrochloride], the Potentiation of nialamide entry in series [1] (5 mg/kg i.p.) is on record as “+”; in series [1] (20 mg/kg i.p.) it was “+++”. Moreover, the minimal effective dose in series [2] came to 20 mg/kg. Further, the ED50 in series [3] is 20 mg/kg. Also, the LD50 at 48 h in series [4] was 75 mg/kg. In addition, in series [5], the IC50 came to 400 nM. For the same compound, the “Test in vivo (inhibition of 14 C-5HT uptake)” value in series [6] is listed as “+”.

As for `CNC1CCc2ccccc2CC1` [Example 7, 7-methylamino-6,7,8,9-tetrahydro [5H] benzocycloheptene hydrochloride], the Potentiation of nialamide result in series [1] (5 mg/kg i.p.) was “+”; in series [1] (20 mg/kg i.p.) it was “++”. In addition, the ED50 in series [3] worked out at 10 mg/kg. Moreover, the LD50 at 48 h in series [4] was 100 mg/kg.

Turning to `CN(C)C1CCc2ccccc2CC1` [Example 2, 7-dimethylamino-6,7,8,9-tetrahydro [5H] benzocycloheptene hydrochloride], the Potentiation of nialamide entry in series [1] (20 mg/kg i.p.) was “+++”; in series [1] (1-5 mg/kg i.p.), “+”. The ED50 in series [3] was determined as 5 mg/kg. This compound also registered a 50% lethal dose (LD50) at 48 h in series [4] of 100 mg/kg.

As for `CN(C)C1CCc2ccccc2C(c2ccccc2)C1` (single isomer, unassigned) [Example 5, 7-dimethylamino-5-phenyl-6,7,8,9-tetrahydro [5H] benzocycloheptene hydrochloride], the figures for the Potentiation of nialamide result in series [1] (1 mg/kg i.p.) and in series [1] (20 mg/kg i.p.) were “+” and “+++”, respectively. For the same compound, in series [2], the minimal effective dose is 10 mg/kg. The ED50 in series [3] turned out to be 2 mg/kg. The same compound gave an LD50 in series [7] of 50 mg/kg. Also, in series [5], the IC50 came to 150 nM. The “Test in vivo (inhibition of 14 C-5HT uptake)” value in series [6] is given as “+++”.

Regarding `CN(C)C1C=C(c2ccccc2)c2ccccc2CC1` (stereo not shown) [Example 3, 7-dimethylamino-9-phenyl-6,7-dihydro [5H] benzocycloheptene hydrochloride], in series [3], the ED50 came to 2 mg/kg. In series [4], the LD50 at 48 h amounted to 100 mg/kg.

On to `C=CCNC1C=Cc2ccccc2CC1` (stereo not shown) [Example 14, 7-allylamino-6,7-dihydro [5H] benzocycloheptene hydrochloride], for which the Potentiation of nialamide result in series [1] (20 mg/kg i.p.) is “++”. Also, in series [2], the minimal effective dose is 50 mg/kg. For the same compound, the ED50 in series [3] is 20 mg/kg. The compound further returned a median lethal dose (LD50) at 48 h in series [4] of 150 mg/kg.

With `CNC1C=Cc2ccccc2CC1` (stereo not shown) [Example 6, 7-methylamino-6,7-dihydro [5H] benzocycloheptene hydrochloride], the Potentiation of nialamide entry is reported as “++” in series [1] (5 mg/kg i.p.) and “+++” in series [1] (20 mg/kg i.p.). In series [2], the minimal effective dose stood at 5 mg/kg. In series [3], the ED50 came out at 10 mg/kg. The median lethal dose (LD50) at 48 h in series [4] is 75 mg/kg. For the same compound, the IC50 in series [5] turned out to be 1900 nM. The “Test in vivo (inhibition of 14 C-5HT uptake)” value in series [6] is “++”.

In series [4], `CN(C)C1CCc2ccccc2C(c2ccccc2)C1` (single isomer, unassigned) [Example 4, 7-dimethylamino-5-phenyl-6,7,8,9-tetrahydro [5H] benzocycloheptene hydrochloride] came in with an LD50 at 48 h of 50 mg/kg.

Take `CN1CCN(C2C=Cc3ccccc3CC2)CC1` (stereo not shown) [Example 13, 7-(4-methylpiperazin-1-yl)-6,7,-dihydro [5H] benzocycloheptene difumarate]: the Potentiation of nialamide entry in series [1] (20 mg/kg i.p.) was “++”. In addition, the minimal effective dose in series [2] came out at 50 mg/kg. Moreover, the median effective dose (ED50) in series [3] amounted to 20 mg/kg. The compound further had a median lethal dose (LD50) at 48 h in series [4] of 250 mg/kg.

`CNC1C=C(c2ccccc2)c2ccccc2CC1` (stereo not shown) [Example 8, 7-methylamino-9-phenyl-6,7-dihydro [5H] benzocycloheptene hydrochloride]: the ED50 in series [3] amounted to 5 mg/kg. The LD50 at 48 h in series [4] amounted to 50 mg/kg.

Regarding `CN(C)C1C=Cc2ccccc2CC1` (stereo not shown) [Example 1, 7-dimethylamino-6,7-dihydro [5H] benzocycloheptene hydrochloride], the Potentiation of nialamide entry in series [1] (20 mg/kg i.p.) is recorded as “++”. Also, the minimal effective dose in series [2] turned out to be 20 mg/kg. Further, the ED50 in series [3] was below 5 mg/kg. For the same compound, the median lethal dose (LD50) at 48 h in series [4] came out at 75 mg/kg. The IC50 in series [5] turned out to be 510 nM. For the same compound, in series [6], the “Test in vivo (inhibition of 14 C-5HT uptake)” value is reported as “++”.

Consider `CNC1C=Cc2cc(Cl)ccc2CC1.Cl` (stereo not shown) [Example 10 (2-chloro derivative), 2-chloro-7-methylamino-6,7-dihydro [5H] benzocycloheptene hydrochloride], for which the Potentiation of nialamide entry in series [1] (1 mg/kg i.p.) and in series [1] (5 mg/kg i.p.) was “+++” in each case. Moreover, in series [2], the minimal effective dose was 10 mg/kg. For the same compound, in series [3], the ED50 is below 5 mg/kg. For the same compound, in series [4], the median lethal dose (LD50) at 48 h stood at 75 mg/kg. The IC50 in series [5] came to 350 nM. Further, the “Test in vivo (inhibition of 14 C-5HT uptake)” value in series [6] is given as “+++”.

With `CCNC1C=Cc2ccccc2CC1` (stereo not shown) [Example 12, 7-ethylamino-6,7-dihydro [5H] benzocycloheptene hydrochloride], in series [2], the minimal effective dose came to 20 mg/kg. Besides, the ED50 in series [3] was 10 mg/kg. This compound also gave an LD50 at 48 h in series [4] of 75 mg/kg.

In the case of `CNC1CCc2ccccc2C(c2ccccc2)C1` (stereo not shown) [Example 9, 7-methylamino-5-phenyl-6,7,8,9-tetrahydro [5H] benzocycloheptene hydrochloride], the minimal effective dose in series [2] was 20 mg/kg. Further, in series [3], the ED50 stood at 5 mg/kg. The LD50 at 48 h in series [4] amounted to 50 mg/kg.

The ED50 is the dose at which the effect has come halfway, by size or by number of responders. Usually LD50 stands for the dose at which mortality reaches 50%.
